Substitutions are numbered along the chain they refer to. Like-named read-outs stand apart in the source and are kept apart here. Each block holds one compound with its values, some of them ahead of it.
Experiments:
hM4Di [1] = biological target: T1, hM4Di (Homo sapiens, UniProt P08173, A203G/Y113C); test: whole-cell [3H]NMS competition binding
T1 sequence (P08173 1-479 Y113C/A203G): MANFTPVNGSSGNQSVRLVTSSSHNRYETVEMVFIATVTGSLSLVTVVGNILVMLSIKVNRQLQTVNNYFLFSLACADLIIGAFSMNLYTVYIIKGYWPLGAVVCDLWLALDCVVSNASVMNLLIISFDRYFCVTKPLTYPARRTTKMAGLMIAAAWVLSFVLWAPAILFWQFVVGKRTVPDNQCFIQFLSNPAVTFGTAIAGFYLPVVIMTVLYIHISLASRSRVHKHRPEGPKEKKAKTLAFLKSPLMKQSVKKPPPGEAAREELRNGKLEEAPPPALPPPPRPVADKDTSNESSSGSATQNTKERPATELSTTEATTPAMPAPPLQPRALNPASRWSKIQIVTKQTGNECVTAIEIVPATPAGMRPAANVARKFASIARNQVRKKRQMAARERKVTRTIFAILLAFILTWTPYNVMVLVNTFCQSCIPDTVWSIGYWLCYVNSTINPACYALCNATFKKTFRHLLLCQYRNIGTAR

hM1Dq [2] = biological target: T2, hM1Dq (Homo sapiens, UniProt P11229, A196G/Y106C); test: IP-One accumulation assay
T2 sequence (P11229 1-460 Y106C/A196G): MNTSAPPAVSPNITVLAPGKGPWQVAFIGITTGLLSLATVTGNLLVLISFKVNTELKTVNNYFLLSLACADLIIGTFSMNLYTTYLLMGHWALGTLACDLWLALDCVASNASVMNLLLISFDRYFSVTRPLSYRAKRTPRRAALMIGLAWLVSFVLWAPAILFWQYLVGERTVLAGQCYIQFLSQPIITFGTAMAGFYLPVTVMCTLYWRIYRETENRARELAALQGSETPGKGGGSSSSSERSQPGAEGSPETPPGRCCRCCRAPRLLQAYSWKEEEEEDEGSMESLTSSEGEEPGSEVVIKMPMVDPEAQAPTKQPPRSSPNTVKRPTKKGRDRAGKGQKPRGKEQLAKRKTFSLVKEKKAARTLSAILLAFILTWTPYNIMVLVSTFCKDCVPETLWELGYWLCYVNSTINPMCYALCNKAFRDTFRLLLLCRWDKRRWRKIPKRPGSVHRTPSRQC

hM1 [3] = biological target: T3, hM1 (Homo sapiens, UniProt P11229); test: ERK1/2 phosphorylation (pERK1/2) assay; format: cell-based; details: wildtype hM1
T3 sequence (P11229 1-460): T2 sequence (P11229 1-460 Y106C/A196G) with C106Y, G196A

[4] = system: hM3Dq expressed in ARC AgRP neurons; test: food intake, hM3Dq in ARC AgRP neurons (Agrp-ires-Cre mice)
hM3Dq = biological target: T4, hM3Dq (Homo sapiens, UniProt P20309, A239G/Y149C); test: Gq-mediated calcium release (FLIPR) assay; format: cell-based; details: CHO cells, mean ± SEM
T4 construct: expressed in transfected cells

hM1Dq [5] = biological target: T2, hM1Dq; test: whole-cell [3H]NMS competition binding
hM4Di [6] = biological target: T1, hM4Di; test: ERK1/2 phosphorylation (pERK1/2) assay
[7] = cited from earlier work
[8] = system: hM4Di expressed in PVH SIM1 neurons; test: food intake, hM4Di in PVH SIM1 neurons (Sim1-Cre mice)
hM4Di [9] = biological target: T1, hM4Di; test: inhibition of isoproterenol-stimulated cAMP production; format: cell-based; design: expressed in transfected cells; details: inhibition of isoproterenol elevated cAMP, mean (±SEM)
hM1Dq [10] = biological target: T2, hM1Dq; test: ERK1/2 phosphorylation (pERK1/2) assay
hM1 [11] = biological target: T3, hM1; test: whole-cell [3H]NMS competition binding; details: hM1, FlpIn CHO cells, mean (±SEM)
hM4 [12] = biological target: T5, hM4 (Homo sapiens, UniProt P08173); test: whole-cell [3H]NMS competition binding; details: hM4, FlpIn CHO cells, mean (±SEM)
T5 construct: HA (hemagglutinin); expressed in transfected cells
T5 sequence (P08173 1-479): T1 sequence (P08173 1-479 Y113C/A203G) with C113Y, G203A

hM1 [13] = biological target: T3, hM1; test: IP-One accumulation assay; format: cell-based; details: wildtype hM1
[14] = design: method as in PMID 28324647; details: following systemic administration of 10 mg/kg CNO; cited from earlier work
hM4 [15] = biological target: T5, hM4; test: inhibition of isoproterenol-stimulated cAMP production; format: cell-based; details: hM4, inhibition of isoproterenol elevated cAMP, mean (±SEM)
[16] = brain and plasma exposure after i.p. administration; format: in vivo, mice; details: i.p. 0.1, 1 and 10 mg/kg, 30 min after administration

T4 sequence (P20309 whole entry Y149C/A239G): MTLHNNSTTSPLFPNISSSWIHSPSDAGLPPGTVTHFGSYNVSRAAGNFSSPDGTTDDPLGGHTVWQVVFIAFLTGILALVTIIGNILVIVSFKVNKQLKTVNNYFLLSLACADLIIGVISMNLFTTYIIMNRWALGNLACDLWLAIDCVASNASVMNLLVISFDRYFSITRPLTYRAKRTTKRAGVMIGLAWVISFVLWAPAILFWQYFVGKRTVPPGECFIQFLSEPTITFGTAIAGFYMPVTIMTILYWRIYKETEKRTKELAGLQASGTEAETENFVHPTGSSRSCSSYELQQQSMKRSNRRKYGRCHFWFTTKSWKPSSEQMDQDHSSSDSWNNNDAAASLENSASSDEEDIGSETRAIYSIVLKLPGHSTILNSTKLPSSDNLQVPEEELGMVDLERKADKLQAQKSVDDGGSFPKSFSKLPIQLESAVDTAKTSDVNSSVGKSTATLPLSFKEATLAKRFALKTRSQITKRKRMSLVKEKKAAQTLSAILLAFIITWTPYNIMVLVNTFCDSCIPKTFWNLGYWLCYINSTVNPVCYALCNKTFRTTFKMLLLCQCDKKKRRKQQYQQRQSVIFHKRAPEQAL

reduction in binding affinity at hM4Di vs wildtype (hM4Di [1]; hM4Di vs hM4): > 10 fold
Structure (SMILES): CC(=O)OCC[N+](C)(C)C [ACh, acetylcholine]

Structure (SMILES): C[N+]1([O-])CCN(C2=Nc3cc(Cl)ccc3Nc3ccccc32)CC1 [CNO, clozapine-N-oxide]
pEC50 IP1 (hM1Dq [2]; hM1Dq, CHO cells, mean (±SEM)): 8.61 (±0.03) N = 10
agonist activity in pERK1/2 assay (hM1 [3]): no agonist activity
food intake, light cycle, sated mice ([4]; AgRP-ires-Cre mice with AAV-DIO-hM3Dq-mCherry, i.p.): increases feeding behavior in sated mice
food intake in control mice ([4]; wildtype (non-Cre-expressing) littermates injected with AAV-DIO-hM3Dq-mCherry): neither C21 nor CNO affected feeding behavior
higher binding affinity at hM4Di than at wildtype hM4 (hM4Di [1]; hM4Di vs hM4): > 10 fold
pKi (hM4Di [1]; hM4Di, FlpIn CHO cells, [3H]-NMS, mean (±SEM)): 6.30 (±0.22) N = 3
pEC50 calcium mobilization (hM3Dq): 7.26±0.07
higher binding affinity at hM1Dq than at wildtype hM1 (hM1Dq [5]; hM1Dq vs hM1): > 10 fold
pKi (hM1Dq [5]; hM1Dq, FlpIn CHO cells, [3H]-NMS, mean (±SEM)): 6.74 (±0.10) N = 9
pEC50 pERK (hM4Di [6]; hM4Di, CHO cells, mean (±SEM)): 6.89 (±0.12) N = 3
metabolic transformation to clozapine ([7]; humans, nonhuman primates and guinea pigs): approximately 10%
metabolic transformation to clozapine ([7]; rodents): a few percent
food intake, light cycle, sated mice ([8]; SIM1-Cre mice with AAV-DIO-hM4Di-mCherry, i.p.): increases feeding behavior in sated mice
food intake in control mice ([8]; wildtype (non-Cre-expressing) littermates injected with AAV-DIO-hM4Di-mCherry): neither C21 nor CNO ligand influenced food intake
pEC50 cAMP (hM4Di [9]): 7.29 (±016) N = 4
pEC50 pERK (hM1Dq [10]; hM1Dq, CHO cells, mean (±SEM)): 7.70 (±0.25) N = 11
pKi (hM1 [11]): 5.10 (±0.03) N = 7
pKi (hM4 [12]): 4.85 (±0.05) N = 3
agonist activity in IP1 assay (hM1 [13]): no agonist activity

Structure (SMILES): Clc1ccc2c(c1)N=C(N1CCNCC1)c1ccccc1N2 [NDMC, N-desmethylclozapine]
level in cerebrospinal fluid (CSF) [14]: 43 nM

Structure (SMILES): CN1CCN(C2=Nc3cc(Cl)ccc3Nc3ccccc32)CC1 [clozapine, reference compound]
level in cerebrospinal fluid (CSF) [14]: 34 nM

Structure (SMILES): CN1CCN(C2=Nc3ccccc3Cc3ccccc32)CC1 [perlapine]
EC50 (hM1Dq [2]): 0.00417 µM
EC50 (hM4 [15]): 0.0562 µM
brain and plasma levels [16]: measurable brain and plasma levels
metabolism to clozapine [16]: no evidence of metabolism to clozapine
agonist activity in pERK1/2 assay (hM1 [3]): no agonist activity
Ki (hM4Di [1]): 0.0676 µM
EC50 (hM3Dq; read-out: pEC50 calcium mobilization (converted)): 0.00832 µM
Ki (hM1Dq [5]): 0.0263 µM
EC50 (hM4Di [6]): 0.0537 µM
EC50 (hM4Di [9]): 0.0631 µM
EC50 (hM1Dq [10]): 0.158 µM
Ki (hM1 [11]): 0.0912 µM
Ki (hM4 [12]): 0.263 µM
agonist activity in IP1 assay (hM1 [13]): no agonist activity

From PMC6407913, “DREADD Agonist 21 Is an Effective Agonist for Muscarinic-Based DREADDs in Vitro and in Vivo” (ACS Pharmacology & Translational Science, 2018)
